Test results reported in US20120040953A1, “Compounds for the Treatment of Metabolic Disorders” (PROSIDION LIMITED, priority 2009, published 2012).

Tested on: male C57Bl/6 or male ob/ob mice
Experiment: Oral glucose tolerance test in mice
Format: in vivo
Conditions: dose of 30 mg kg^−1, oral
Experimental: The effects of compounds of the invention on oral glucose (Glc) tolerance were evaluated in male C57Bl/6 or male ob/ob mice. Food was withdrawn 5 h before administration of Glc and remained withdrawn throughout the study. Mice had free access to water during the study. A cut was made to the animals' tails, then blood (20 μL) was removed for measurement of basal Glc levels 45 min before administration of the Glc load. Then, the mice were weighed and dosed orally with test compound or vehicle (20% aqueous hydroxypropyl-β-cyclodextrin or 25% aqueous Gelucire 44/14) 30 min before the removal of an additional blood sample (20 μL) and treatment with the Glc load (2-5 g kg^−1 p.o.). Blood samples (20 μL) were then taken 25, 50, 80, 120, and 180 min after Glc administration. The 20 μL blood samples for measurement of Glc levels were taken from the cut tip of the tail into disposable micro-pipettes (Dade Diagnostics Inc., Puerto Rico) and the sample added to 480 μL of haemolysis reagent. Duplicate 20 μL aliquots of the diluted haemolysed blood were then added to 180 μL of Trinders glucose reagent (Sigma enzymatic (Trinder) colorimetric method) in a 96-well assay plate. After mixing, the samples were left at room temperature for 30 min before being read against Glc standards (Sigma glucose/urea nitrogen combined standard set).

CC(C)OC(=O)N1CCC(O[C@H](C)c2nc(-c3cnc(N4C[C@H](c5cc(F)ccc5F)[C@@H](N)C4)nc3)no2)CC1.Cc1ccc(S(=O)(=O)O)cc1 [Example 18, 4-[(R)-1-(3-{2-[(3R,4S)-3-Amino-4-(2,5-difluorophenyl)pyrrolidin-1-yl]pyrimidin-5-yl}-[1,2,4]oxadiazol-5-yl)ethoxy]piperidine-1-carboxylic acid isopropyl ester p-toluenesulfonic acid salt]
reduction in the Glc excursion: > 40%
